Measurements: patent US20260167614A1, “IDENTIFICATION OF SMALL MOLECULES THAT RECRUIT AND ACTIVATE RNASE L” (UNIVERSITY OF FLORIDA RESEARCH FOUNDATION, INCORPORATED, priority 2022, published 2026)

Legend:
pre-miR-21 = experiment: In vitro cleavage of dually labeled pre-miR-21 with RNase L; format: biochemical; conditions: incubated with RNase L
[1] = RiboTAC cellular uptake quantification; format: in vitro ADME; conditions: human, MDA-MB-231 cells; 5 μM in culture medium
Description: (§1) A time-course for RiboTAC degradation of pre-miR-21 was completed and compared to its cellular permeability. […] Additionally, degradation of pre-miR-21 is first detectable after 48 h of treatment with 7 (FIG. 10B).
(§2) RiboTAC Cellular Uptake Quantification. MDA-MB-231 cells were cultured as described in “Cell Culture” with a final cell density of 13,500 cells per well. Cells were treated with 7 (5 μM) for 0, 0.25, 0.5, 0.75, 1, 2, 3, 6, 12, 24, and 48 hours. Following treatment, cells were rapidly washed with 1×PBS to remove any unincorporated compound. Cells were then detached using 75 μl trypsin, immediately homogenized and flash frozen. The cell homogenate was analyzed using a Sciex 6500 mass spectrometer operated in multiple reaction monitoring mode with the transition m/z=1078.3/900.3. Homogenate drug levels were determined by comparison to a standard curve prepared in untreated cell homogenate. Calculated concentrations, (ng drug)/(ml homogenate) or μM drug inside cell, were fit to a one-phase association model using GraphPad Prism.

MDA-MB-231 cells [2] = experiment: RiboTAC cellular uptake quantification; format: in vitro ADME
Description: as §1, §2

MDA-MB-231 cells [3] = experiment: Boyden chamber invasion assay, MDA-MB-231; format: cell-based; conditions: 5 μM
Description: (§3) The effect of the RiboTAC on a miR-21-associated invasive phenotype was next assessed. Treatment with 5 μM of 7 reduced the invasiveness of MDA-MB-231 cells, by ˜30% (p<0.05) (FIG. 4E-F). […] While forced expression of a mutant pre-miR-21 in which the Dovitinib-binding site is mutated also produced an invasive phenotype, the cells were insensitive to treatment with 7 (FIG. 12).
Boyden Chamber Invasion Assay. Hanging cell culture inserts (for 24-well plates, 8.0 μm) were pre-coated with 0.3 mg/mL Matrigel (Corning, 356234). MDA-MB-231 cells (75,000 per insert) were then seeded into the hanging inserts in serum free growth medium, with or without compound (0.1% final DMSO concentration). The inserts were then placed into 24-well plates containing complete. After 16-24 h, the medium was removed, and the hanging inserts were washed with 1×DPBS. Cells were fixed for 20 min at room temperature with 4% (w/v) paraformaldehyde in 1×DPBS. The inserts were washed twice with 1×DPBS and then stained with 0.1% (w/v) crystal violet in 20% methanol (v/v) for 20 min. The inserts were then washed twice with Nanopure water and once with 1×DPBS. Cells on the surface of the Matrigel (noninvasive) were removed with cotton swabs and invading cells were imaged under a Leica DMI3000 B […] fluorescent microscope (the number of invasive cells in 4 fields of view per sample).

MCF-10A cells = experiment: Boyden chamber invasion assay, MCF-10A with forced pre-miR-21 expression; format: cell-based; conditions: WT pre-miR-21 plasmid
Description: as §3
MCF-10A cells were first transfected with either a plasmid expressing pre-miR-21 (Addgene; catalog #21114) or a plasmid encoding a pre-miR-21 mutant (custom purchased from GenScript USA, Inc, FIG. 8) using jetPRIME (Polyplus), per the manufacturer's protocol (3.2 μg of plasmid per 60 mm dish). After transfection, cells (50,000 per insert) were seeded into the hanging inserts in serum free growth medium, with or without compound (0.1% final DMSO concentration). The assay was then completed as described for the MDA-MB-231 cells.

CNC(=O)[C@H](c1ccccc1)N(C)Cc1ccc(-c2cccc(-c3sccc3NC(=O)CCOCCOCCOCCC(=O)NCCN3CCN(c4ccc5nc(-c6c(N)c7c(F)cccc7[nH]c6=O)[nH]c5c4)CC3)c2)cc1 [RiboTAC 7, (S)—N-(2-(4-(2-(4-amino-5-fluoro-2-oxo-1,2-dihydroquinolin-3-yl)-1H-benzo[d]imidazol-6-yl)piperazin-1-yl)ethyl)-3-(2-(2-(3-((2-(4′-((methyl(2-(methylamino)-2-oxo-1-phenylethyl)amino)methyl)-[1,1′-biphenyl]-3-yl)thiophen-3-yl)amino)-3-oxopropoxy)ethoxy)ethoxy)propanamide]
cleavage of pre-miR-21 construct labeled with 6-FAM and BHQ (pre-miR-21): induced dose-dependent cleavage of pre-miR-21
half-life at 5 μM [1]: 2.4 h
time to reach plateau of cellular accumulation (MDA-MB-231 cells [2]; 5 μM in culture medium): about 8 h
concentration inside cells (MDA-MB-231 cells [2]; after 48 h treatment with 5 μM in culture medium): 3.6 ± 1.2 µM
reduction of invasiveness (MDA-MB-231 cells [3]): ~30%
invasive phenotype induced by forced expression of pre-miR-21 (MCF-10A cells): rescued
